Measured values taken from PubChem BioAssay AID1963872 (Molecular Pharmacology Branch, DTP, NCI, 2024).

Test system: KRAS patient-derived spheroids with HUVEC/MSC, viability
Test: Anticancer human tumor 519858-162-T-J1-PDC patient-derived colon adenocarcinoma cell line growth inhibition [KRAS2]
Details: for IC50: curve of first compound; for viability, T/C: stronger effect = lower value
Excerpt: Multicellular complex tumor spheroid response to RAS pathway inhibitors in combination with a targeted agents in patient-derived cell lines with oncogenic KRAS variants from multiple cancer types
A high-throughput screen of multi-cell type tumor spheroids was designed to identify active combinations of targeted small molecules and KRAS pathway inhibitors. Complex spheroids include a stromal component modeled by human endothelial cells (HUVEC) and fibroblasts modeled by human mesenchymal stem cells (MSCs). The concentration ranges selected for each drug and investigational agent were based upon clinically achievable concentrations if the clinical Cmax of the agent was known.
Compounds. The drugs and investigational agents: BI-3406 (NSC825286), BAY-293 (NSC824723), batoprotafib (TNO155; NSC825523), sotorasib (AMG 510; NSC818433), MRTX1257 (NSC819558), elimusertib (BAY 1895344; NSC800525), molibresib (GSK525762; NSC774829), temuterkib (LY3214996; NSC803410), venetoclax (NSC766270), alisertib (NSC759677), olaparib (NSC753686), talazoparib (NSC767125), erdafitinib (NSC781556), ipatasertib (NSC767898), cabozantinib (NSC761068), nintedanib (NSC756659), abemaciclib (NSC768073), docetaxel (NSC628503), trametinib (NSC758246), and sapanisertib (NSC764658) were obtained from the National Cancer Institute (NCI) Developmental Therapeutics Program Chemical Repository. The FDA-approved anticancer drug set is available from the Developmental Therapeutics Program. […] The stock solutions were prepared in dimethyl sulfoxide (DMSO, Sigma-Aldrich, St. Louis, MO, cat. D2650) at 800-fold the tested concentration and stored at -70 degrees C prior to their use. All drugs and investigational agents were tested over a range starting from a high concentration at or near the clinical Cmax and decreasing in half-log increments. If the clinical Cmax for an agent had not been determined, the highest concentration tested was 10 microM.
Cell Culture. All cells were maintained in an incubator at 37 degrees C and 5% CO2 with 95% humidity. The PDC lines were cultured according to standard operating procedures established by the NCI PDMR (https://pdmr.cancer.gov/sops/default.htm). Briefly, all PDCs were thawed and cultured in Matrigel-coated flasks prepared with a working solution of 1X Ham's F-12 nutrient mix, without supplementation (Invitrogen, Waltham, MA, cat. 11765054), 100 U/mL penicillin-streptomycin (Invitrogen, cat. 15140122), and 2.5% Matrigel (Corning Inc., Corning, NY, cat. 354248) for the first three passages. All PDCs were cultured in complete DMEM/F-12 media containing advanced DMEM/F-12 (Invitrogen, cat. 12634028), 4.9% defined fetal bovine serum, heat inactivated (HyClone Laboratories Inc., Logan, UT, cat. SH30070.03HI), 389 ng/mL hydrocortisone (Sigma-Aldrich, cat. H4001), 9.7 ng/mL human EGF recombinant protein (Invitrogen, cat. PHG0313), 23.4 microg/mL adenine (Sigma-Aldrich, cat. A2786), 97.3 U/mL penicillin-streptomycin (Invitrogen, cat. 15140122), 1.9 mM L-glutamine (Invitrogen, cat. 25030081), and 9.7 microM Y-27632 dihydrochloride (Tocris Bioscience, Bristol, United Kingdom, cat. 1254). The PDCs were cultured in complete DMEM/F12 media without 9.7 microM Y-27632 dihydrochloride for at least two passages prior to the screen. The established cell line HOP-62 was cultured in RPMI 1640 medium, HEPES (Invitrogen, cat. 22400105) with 10% defined fetal bovine serum (HyClone Laboratories Inc., cat. SH30070.03) and 2 mM L-glutamine (Invitrogen, cat. 25030081). The pooled donor HUVEC were cultured in endothelial cell growth medium 2 (PromoCell, Heidelberg, Germany, cat. C-22011) and the hMSC were cultured in mesenchymal stem cell growth medium 2 (PromoCell, cat. C-28009). For all experiments, HUVEC and hMSC were used at passages </=5, while the malignant cell lines were used at passages </=15. […]

[1] = second compound 0.1 µM, first compound 0.01 µM
[2] = second compound 0.1 µM, first compound 0.0316 µM
[3] = second compound 0.1 µM, first compound 0.1 µM
[4] = second compound 0.1 µM, first compound 0.316 µM
[5] = second compound 0.1 µM, first compound 1 µM
[6] = second compound 0.1 µM, first compound 3.16 µM
[7] = second compound 0.316 µM, first compound 0.01 µM
[8] = second compound 0.316 µM, first compound 0.0316 µM
[9] = second compound 0.316 µM, first compound 0.1 µM
[10] = second compound 0.316 µM, first compound 0.316 µM
[11] = second compound 0.316 µM, first compound 1 µM
[12] = second compound 0.316 µM, first compound 3.16 µM
[13] = second compound 1 µM, first compound 0.01 µM
[14] = second compound 1 µM, first compound 0.0316 µM
[15] = second compound 1 µM, first compound 0.1 µM
[16] = second compound 1 µM, first compound 0.316 µM
[17] = second compound 1 µM, first compound 1 µM
[18] = second compound 1 µM, first compound 3.16 µM
[19] = second compound 3.16 µM, first compound 0.01 µM
[20] = second compound 3.16 µM, first compound 0.0316 µM
[21] = second compound 3.16 µM, first compound 0.1 µM
[22] = second compound 3.16 µM, first compound 0.316 µM
[23] = second compound 3.16 µM, first compound 1 µM
[24] = second compound 3.16 µM, first compound 3.16 µM
[25] = second compound 0.1 µM, first compound 10 µM
[26] = second compound 0.316 µM, first compound 10 µM
[27] = second compound 1 µM, first compound 10 µM
[28] = second compound 3.16 µM, first compound 10 µM
[29] = second compound 10 µM, first compound 0.0316 µM
[30] = second compound 10 µM, first compound 0.1 µM
[31] = second compound 10 µM, first compound 0.316 µM
[32] = second compound 10 µM, first compound 1 µM
[33] = second compound 10 µM, first compound 3.16 µM
[34] = second compound 10 µM, first compound 10 µM
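Further: compound exposure lasted seven days before readout.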
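Wherever viability, T/C is given: 100% = DMSO vehicle control viability.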

CC1COCCN1c1cc(-c2ccnn2C)c2ccnc(-c3ccn[nH]3)c2n1 (stereo not given) + C=CC(=O)N1CCN(c2nc(OCC3CCCN3C)nc3c2CCN(c2cccc4cccc(C)c24)C3)CC1CC#N
IC50 (second compound 0.0316 µM): 2390 nM | IC50 (second compound 0.1 µM): 434 nM | IC50 (second compound 0.316 µM): 813 nM | IC50 (second compound 1 µM): 470 nM | IC50 (second compound 3.16 µM): < 10 nM | viability, T/C (second compound 0.0316 µM, first compound 0.01 µM): 98.8% | viability, T/C (second compound 0.0316 µM, first compound 0.0316 µM): 78.5% | viability, T/C (second compound 0.0316 µM, first compound 0.1 µM): 78.3% | viability, T/C (second compound 0.0316 µM, first compound 0.316 µM): 69.2% | viability, T/C (second compound 0.0316 µM, first compound 1 µM): 74.9% | viability, T/C (second compound 0.0316 µM, first compound 3.16 µM): 40.7% | viability, T/C [1]: 115% | viability, T/C [2]: 74% | viability, T/C [3]: 73.3% | viability, T/C [4]: 51.6% | viability, T/C [5]: 50.3% | viability, T/C [6]: 28.4% | viability, T/C [7]: 78.5% | viability, T/C [8]: 72.7% | viability, T/C [9]: 71.2% | viability, T/C [10]: 69.5% | viability, T/C [11]: 45.7% | viability, T/C [12]: 33.2% | viability, T/C [13]: 83.4% | viability, T/C [14]: 58.3% | viability, T/C [15]: 84.5% | viability, T/C [16]: 58.6% | viability, T/C [17]: 33.9% | viability, T/C [18]: 26.7% | viability, T/C [19]: 38.3% | viability, T/C [20]: 64.3% | viability, T/C [21]: 24.3% | viability, T/C [22]: 29.5% | viability, T/C [23]: 30.7% | viability, T/C [24]: 13.2%

COc1cc(Nc2ncc3c(n2)-c2ccc(Cl)cc2C(c2c(F)cccc2OC)=NC3)ccc1C(=O)O + C=CC(=O)N1CCN(c2nc(=O)n(-c3c(C)ccnc3C(C)C)c3nc(-c4c(O)cccc4F)c(F)cc23)C(C)C1
IC50 (second compound 0.1 µM): > 10000 nM | IC50 (second compound 0.316 µM): > 10000 nM | IC50 (second compound 1 µM): > 10000 nM | IC50 (second compound 3.16 µM): > 10000 nM | IC50 (second compound 10 µM): > 10000 nM | viability, T/C [2]: 104% | viability, T/C [3]: 62.4% | viability, T/C [4]: 89.9% | viability, T/C [5]: 102% | viability, T/C [6]: 104% | viability, T/C [25]: 120% | viability, T/C [8]: 80% | viability, T/C [9]: 91.2% | viability, T/C [10]: 74.1% | viability, T/C [11]: 53.3% | viability, T/C [12]: 89.9% | viability, T/C [26]: 125% | viability, T/C [14]: 97.2% | viability, T/C [15]: 94.4% | viability, T/C [16]: 91.5% | viability, T/C [17]: 85.5% | viability, T/C [18]: 83% | viability, T/C [27]: 125% | viability, T/C [20]: 134% | viability, T/C [21]: 74.8% | viability, T/C [22]: 57.1% | viability, T/C [23]: 90.1% | viability, T/C [24]: 71.3% | viability, T/C [28]: 91.1% | viability, T/C [29]: 95.1% | viability, T/C [30]: 74.1% | viability, T/C [31]: 83% | viability, T/C [32]: 71% | viability, T/C [33]: 73% | viability, T/C [34]: 103%

COc1cc2nccc(Oc3ccc(NC(=O)C4(C(=O)Nc5ccc(F)cc5)CC4)cc3)c2cc1OC + CNCc1ccccc1-c1csc(C(C)Nc2nc(C)nc3cc(OC)c(OC)cc23)c1
IC50 (second compound 0.1 µM): > 10000 nM | IC50 (second compound 0.316 µM): > 10000 nM | IC50 (second compound 1 µM): > 10000 nM | IC50 (second compound 3.16 µM): 3460 nM | IC50 (second compound 10 µM): < 31.6 nM | viability, T/C [2]: 92.8% | viability, T/C [3]: 93.2% | viability, T/C [4]: 81.7% | viability, T/C [5]: 94% | viability, T/C [6]: 107% | viability, T/C [25]: 146% | viability, T/C [8]: 91.4% | viability, T/C [9]: 96.5% | viability, T/C [10]: 88% | viability, T/C [11]: 90.1% | viability, T/C [12]: 98.1% | viability, T/C [26]: 132% | viability, T/C [14]: 67.1% | viability, T/C [15]: 81.8% | viability, T/C [16]: 61.6% | viability, T/C [17]: 50.1% | viability, T/C [18]: 106% | viability, T/C [27]: 100% | viability, T/C [20]: 39.9% | viability, T/C [21]: 55.6% | viability, T/C [22]: 44.5% | viability, T/C [23]: 38.1% | viability, T/C [24]: 95% | viability, T/C [28]: 0.54% | viability, T/C [29]: 1.01% | viability, T/C [30]: 0.42% | viability, T/C [31]: 0.68% | viability, T/C [32]: 1.44% | viability, T/C [33]: 0.37% | viability, T/C [34]: 0.36%

Cn1ncnc1[C@H]1c2n[nH]c(=O)c3cc(F)cc(c23)N[C@@H]1c1ccc(F)cc1 + CC1OCC2(CCN(c3cnc(Sc4ccnc(N)c4Cl)c(N)n3)CC2)C1N
IC50 (second compound 0.1 µM): > 100 nM | IC50 (second compound 0.316 µM): > 100 nM | IC50 (second compound 1 µM): > 100 nM | IC50 (second compound 3.16 µM): > 100 nM | IC50 (second compound 10 µM): > 100 nM | viability, T/C (second compound 0.1 µM, first compound 0.000316 µM): 81.5% | viability, T/C (second compound 0.1 µM, first compound 0.001 µM): 81.4% | viability, T/C (second compound 0.1 µM, first compound 0.00316 µM): 91.9% | viability, T/C [1]: 88.9% | viability, T/C [2]: 81.5% | viability, T/C [3]: 101% | viability, T/C (second compound 0.316 µM, first compound 0.000316 µM): 68% | viability, T/C (second compound 0.316 µM, first compound 0.001 µM): 87.3% | viability, T/C (second compound 0.316 µM, first compound 0.00316 µM): 77% | viability, T/C [7]: 56.7% | viability, T/C [8]: 77.3% | viability, T/C [9]: 80.2% | viability, T/C (second compound 1 µM, first compound 0.000316 µM): 99.4% | viability, T/C (second compound 1 µM, first compound 0.001 µM): 58.1% | viability, T/C (second compound 1 µM, first compound 0.00316 µM): 82.4% | viability, T/C [13]: 65.5% | viability, T/C [14]: 59.1% | viability, T/C [15]: 82.9% | viability, T/C (second compound 3.16 µM, first compound 0.000316 µM): 57.1% | viability, T/C (second compound 3.16 µM, first compound 0.001 µM): 49.4% | viability, T/C (second compound 3.16 µM, first compound 0.00316 µM): 59.5% | viability, T/C [19]: 53.7% | viability, T/C [20]: 59.9% | viability, T/C [21]: 75.1% | viability, T/C (second compound 10 µM, first compound 0.000316 µM): 62% | viability, T/C (second compound 10 µM, first compound 0.001 µM): 68.4% | viability, T/C (second compound 10 µM, first compound 0.00316 µM): 84.7% | viability, T/C (second compound 10 µM, first compound 0.01 µM): 65.7% | viability, T/C [29]: 65.4% | viability, T/C [30]: 65.8%
